The test system of data set [1] is NCI/ADR-RES. Kind of data set: Anticancer activity against P-gp overexpressing human NCI/ADR-RES cells after 96 hrs by SRB assay. The data set is classed as functional, cell-based. A general note: Sulforhodamine B stains cellular protein and so reports cell mass.
Data set [2] relates to PPC-1. In words: Anticancer activity against human PPC1 cells after 96 hrs by SRB assay. Type of data set: functional, cell-based. Conditions: PPC-1, 96 h.
Data set [3] deals with DU-145. Kind of data set: Anticancer activity against human DU145 cells after 96 hrs by SRB assay. Type of data set: functional, cell-based. Conditions: DU-145, 96 h.
Data set [4] deals with PC-3. In words: Anticancer activity against human PC3 cells after 96 hrs by SRB assay. Type of data set: functional, cell-based. The following applies: PC-3, 96 h.
In data set [5] the test system is A-375. In words: Anticancer activity against human A375 cells after 96 hrs by SRB assay. Type of data set: functional, cell-based. Conditions: A-375, 96 h.
Data set [6] concerns OVCAR-8. Kind of data set: Resistance factor, ratio of IC50 for human NCI-ADR-RES cells to IC50 for drug-sensitive human OVCAR8 cells. Type of data set: functional.
Data set [7] concerns OVCAR-8. In words: Anticancer activity against human OVCAR8 cells after 96 hrs by SRB assay. The data set is classed as functional, cell-based. Conditions: OVCAR-8, 96 h.
Data set [8] is described as follows: Anticancer activity against mouse B16-F1 cells after 96 hrs by SRB assay. Type of data set: functional, cell-based. Conditions: B16-F1, 96 h.
In data set [9] the test system is LNCaP. In words: Anticancer activity against human LNCAP cells after 96 hrs by SRB assay. The data set is classed as functional, cell-based.
Data set [10] in a line: Cmax in Sprague-Dawley rat at 4 mg/kg, po by LC-MS/MS analysis. Type of data set: ADME, organism-based. Also noted: dose 4 mg/kg, route oral. The following applies: in vivo.
For data set [11], the system named is Rattus norvegicus. In words: Oral bioavailability in Sprague-Dawley rat at 4 mg/kg by LC-MS/MS analysis. Type of data set: ADME, organism-based. Conditions: in vivo.
The nature of data set [12]: AUC in Sprague-Dawley rat at […], iv by LC-MS/MS analysis. Type of data set: ADME, organism-based. More on the design: dose 2.5 mg/kg, route intravenous. The following applies: plasma.
A short description of data set [13]: Aqueous solubility of the compound in PBS at 35 ug/ml and pH 7.4 by LC/MS/MS analysis. Type of data set: physicochemical. The following applies: buffer.
Data set [14] in a line: Cmax in Sprague-Dawley rat at […], iv by LC-MS/MS analysis. Also noted: dose 2.5 mg/kg, route intravenous. Type of data set: ADME, organism-based. The following applies: in vivo.
A short description of data set [15]: AUC in Sprague-Dawley rat at 4 mg/kg, po by LC-MS/MS analysis. Type of data set: ADME, organism-based. More on the design: dose 4 mg/kg, route oral. Conditions: plasma.
Data set [16] can be described thus: Anticancer activity against human WM164 cells after 96 hrs by SRB assay. Type of data set: functional, cell-based. The following applies: WM164, 96 h.
Data set [17] has as its system Liver microsomes. Kind of data set: Half life in human liver microsomes. Type of data set: ADME, Microsome. On the technique in general: Microsomes from liver hold many membrane-bound enzymes, among them those of drug oxidation.
Data set [18] can be described thus: AUC in Sprague-Dawley rat at 5 mg/kg, iv by LC-MS/MS analysis. Type of data set: ADME, organism-based. Also noted: dose 5 mg/kg, route intravenous. The following applies: plasma.
Data set [19] can be described thus: AUC in Sprague-Dawley rat at 10 mg/kg, po by LC-MS/MS analysis. Also noted: dose 10 mg/kg, route oral. Type of data set: ADME, organism-based. Conditions: plasma.

As for `COc1cc(C(=O)c2csc(-c3ccc4[nH]ccc4c3)n2)cc(OC)c1OC`, the IC50 came out at 4 nM in data set [1]; 8 nM in [2]; 13 nM in [3]; 7 nM in [4]; 8 nM in data set [5]; 10 nM in [7]. This molecule came in with a concentration for half-maximal inhibition (IC50) in data set [8] of 25 nM. For the same molecule, the “Ratio IC50” value in [6] came out at 0.4.
On to `COc1cc(C(=O)c2csc(-c3ccc(CN)cc3)n2)cc(OC)c1OC.Cl`, for which the IC50 in [1] turned out to be 11 nM; in data set [2] it was 34 nM; in data set [9] it was 13 nM; in data set [4], 80 nM; in data set [5], 41 nM; in data set [7], 26 nM. This molecule also came in with an IC50 in data set [8] of 38 nM. Besides, the Cmax in [10] stood at 3.2 ng/mL; in [14], 3790 ng/mL. The F in [11] is recorded as 0.2%. The AUC is 2320 ng·h/mL in data set [12] and 6.67 ng·h/mL in data set [15]. Also, the solubility entry in data set [13] is reported as “soluble”.
As for `COc1cc(/C(=N\C#N)c2csc(-c3ccccc3)n2)cc(OC)c1OC`, the IC50 turned out to be 14 nM in data set [1]; 20 nM in data set [2]; 42 nM in data set [3]; 23 nM in data set [9]; 27 nM in [4]; 28 nM in data set [5]. In addition, the IC50 in [7] was 34 nM; in data set [16] it was 27 nM; in data set [8], 60 nM. Also, the “Ratio IC50” value in data set [6] stood at 0.4. In data set [17], this molecule returned a t1/2 of under 5 min.
For the molecule `COc1cc(C(=O)c2csc(Nc3ccccc3)n2)cc(OC)c1OC.Cl`, the AUC is 4930 ng·h/mL in data set [18] and 1080 ng·h/mL in data set [19].
Take `COc1cc(C(=O)c2csc(Nc3ccc(F)cc3)n2)cc(OC)c1OC`: the 50% inhibitory concentration (IC50) is 25 nM in data set [1], 63 nM in data set [3], 41 nM in [9] and 44 nM in [7].
In the case of `COc1cc(C(=O)c2csc(Nc3ccccc3)n2)cc(OC)c1OC`, the half-inhibitory concentration (IC50) in data set [1] worked out at 27 nM; in data set [2], 54 nM; in data set [3] it was 70 nM; in data set [9], 51 nM; in [4] it was 57 nM; in data set [7] it was 46 nM. Half-maximal inhibition in [8] (IC50) was put at 65 nM. For the same molecule, the “Ratio IC50” value in data set [6] stood at 0.6.
Consider `CC(=O)O[C@H]1C(=O)[C@@]2(C)[C@H]([C@H](OC(=O)c3ccccc3)[C@]3(O)C[C@H](OC(=O)[C@H](O)[C@@H](NC(=O)c4ccccc4)c4ccccc4)C(C)=C1C3(C)C)[C@]1(OC(C)=O)CO[C@@H]1C[C@@H]2O` [PACLITAXEL], for which the IC50 in [7] stood at 4.7 nM.
Consider `COc1cc(C(=O)c2cccc(-c3ccccc3)n2)cc(OC)c1OC`, for which the IC50 in [1] is 13 nM; in [2] it was 25 nM; in data set [9], 27 nM; in data set [5], 30 nM; in data set [7] it was 33 nM; in data set [8] it was 39 nM. In data set [6], the “Ratio IC50” value stood at 0.4.
Turning to `COc1cc(C(=O)c2csc(Nc3ccc(C)cc3)n2)cc(OC)c1OC`, the concentration for half-maximal inhibition (IC50) in [1] was 21 nM; in [7] it was 28 nM. Besides, the “Ratio IC50” value in [6] was 0.8.
Consider `COc1cc(C(=O)c2csc(Nc3ccc(F)cc3)n2)cc(OC)c1OC.Cl`, for which the area under the curve (AUC) is 6350 ng·h/mL in data set [18] and 2670 ng·h/mL in data set [19].
In the case of `COc1cc(/C(=C/C#N)c2csc(-c3ccccc3)n2)cc(OC)c1OC`, the IC50 in data set [2] turned out to be 900 nM; in data set [3], 2280 nM; in data set [9], 580 nM; in data set [4], 890 nM; in data set [5], 4600 nM; in data set [16] it was 4900 nM. Moreover, the IC50 in data set [8] is 5400 nM.
Take `COc1cc(C(=O)c2csc(-c3ccccc3)n2)cc(OC)c1OC`: the IC50 in [7] came out at 35 nM; in data set [16] it was 64 nM; in [8], 55 nM. Also, the results for the exposure (AUC) in data set [12] and in data set [19] were 4650 ng·h/mL and 617 ng·h/mL, respectively.

The term IC50 denotes the midpoint of a concentration-inhibition curve. By Cmax is commonly meant the peak of the concentration-time curve. The term AUC denotes the area under the concentration-time curve, a measure of exposure. Read a high AUC as high exposure.

(Values after ChEMBL document CHEMBL1828586 (J Med Chem, 2011).)
